According to ChEMBL document CHEMBL2380214, “Novel hybrids of (phenylsulfonyl)furoxan and anilinopyrimidine as potent and selective epidermal growth factor receptor inhibitors for intervention of non-small-cell lung cancer” (J Med Chem, 2013):
Activity calls are given as the source filed them. The rule behind the calls is not given here.

Legend:
cells [1] = format: functional, cell-based; details: Homo sapiens, HCC827, 72 h
NCI-H1975 [2] = assay: Cytotoxicity against gefitinib-resistant human NCI-H1975 cells harboring EGFR L858R/[…] double mutant assessed as growth inhibition after 72 hrs by MTT assay; format: functional, cell-based; details: NCI-H1975, 72 h
cells [3] = format: ADME, cell-based; details: Homo sapiens, 16HBE14o-, 72 h
Description: Cytotoxicity against human 16HBE14o- cells harboring wild type EGFR assessed as growth inhibition after 72 hrs by MTT assay

cells [4] = format: ADME, cell-based; details: Homo sapiens, BEAS-2B, 72 h
Description: Cytotoxicity against human BEAS2B cells harboring wild type EGFR assessed as growth inhibition after 72 hrs by MTT assay

A549 = assay: cells; format: ADME, cell-based; details: Homo sapiens, A549, 72 h
Description: Cytotoxicity against human A549 cells harboring wild type EGFR and k-RAS mutation assessed as growth inhibition after 72 hrs by MTT assay

[5] = molecular target: Epidermal growth factor receptor (Homo sapiens, UniProt P00533)
Description: Inhibition of wild type EGFR (unknown origin) after 1.5 hrs by FRET-based Z'Lyte assay

[6] = molecular target: Epidermal growth factor receptor (Homo sapiens, UniProt P00533, L858R); format: protein assay
Description: Inhibition of EGFR L858R mutant (unknown origin) after 1.5 hrs by FRET-based Z'Lyte assay

[7] = molecular target: Epidermal growth factor receptor (Homo sapiens, UniProt P00533, L858R/T790M); format: protein assay
Description: Inhibition of EGFR L858R/T790M double mutant (unknown origin) after 1.5 hrs by FRET-based Z'Lyte assay

A-431 = assay: cells; format: ADME, cell-based; details: Homo sapiens, A-431, 72 h
Description: Cytotoxicity against human A431 cells overexpressing wild type EGFR assessed as growth inhibition after 72 hrs by MTT assay

[8] = test system: Epidermal growth factor receptor (Homo sapiens), P00533 [L858R,T790M]; details: NCI-H1975, 0.01 to 1 uM
NCI-H1975 [9] = assay: Antitumor activity against gefitinib-resistant human NCI-H1975 cells harboring EGFR L858R/[…] double mutant xenografted in athymic BALB/c nude mouse assessed as tumor growth inhibition at 8 mg/kg, ip qd administered for 14 days measured every other day during compound administration relative to vehicle-treated control; format: functional; details: 336 h, route intraperitoneal, read-out: TGI
HCC827 = assay: Induction of apoptosis in gefitinib-sensitive human HCC827 cells harboring EGFR […] deletion mutant after 24 hrs by annexin-V/7-AAD staining-based FACS flow cytometric analysis; format: functional, cell-based
NCI-H1975 [10] = assay: Inhibition of NFkappaB phosphorylation in gefitinib-resistant human NCI-H1975 cells harboring EGFR L858R/[…] double mutant at 0.01 to 1 uM after 24 hrs by Western blot analysis; format: cell-based
NCI-H1975 [11] = assay: Induction of NO production in human NCI-H1975 cells harboring EGFR L858R/[…] double mutant assessed as increase in nitrite level at 100 uM after 150 mins by Griess assay; format: functional, cell-based
[12] = Induction of apoptosis in EGFR-independent human H460 cells at 1 to 5 uM after 24 hrs by annexin-V/7-AAD staining-based FACS flow cytometric analysis; format: cell-based; details: nci-h460, 24 h
NCI-H1975 [13] = assay: Induction of apoptosis in gefitinib-resistant human NCI-H1975 cells harboring EGFR L858R/[…] double mutant after 24 hrs by annexin-V/7-AAD staining-based FACS flow cytometric analysis; format: functional, cell-based
[14] = Induction of NO production in human 16HBE14o- cells harboring wild type EGFR assessed as increase in nitrite level at 100 uM after 150 mins by Griess assay; format: cell-based; details: 2.5 h
[15] = test system: Epidermal growth factor receptor (Homo sapiens), P00533 [L858R,T790M]; details: NCI-H1975, 0.01 to 1 uM; remark: listed apart in the source
[16] = test system: Epidermal growth factor receptor (Homo sapiens), P00533 [L858R,T790M]; details: NCI-H1975, 0.01 to 1 uM; remark: listed apart in the source
[17] = Selectivity ratio of IC50 for human BEAS2B cells harboring wild type EGFR to IC50 for gefitinib-sensitive human HCC827 cells harboring EGFR […] deletion mutant; format: ADME, cell-based; details: read-out: Ratio IC50
[18] = Selectivity ratio of IC50 for human A549 cells harboring wild type EGFR and k-RAS mutation to IC50 for gefitinib-resistant human NCI-H1975 cells harboring EGFR L858R/[…] double mutant; format: ADME, cell-based
[19] = Selectivity ratio of IC50 for human 16HBE14o- cells harboring wild type EGFR to IC50 for gefitinib-resistant human NCI-H1975 cells harboring EGFR L858R/[…] double mutant; format: ADME, cell-based; details: read-out: Ratio IC50
[20] = Selectivity ratio of IC50 for human BEAS2B cells harboring wild type EGFR to IC50 for gefitinib-resistant human NCI-H1975 cells harboring EGFR L858R/[…] double mutant; format: ADME, cell-based; details: read-out: Ratio IC50
[21] = Selectivity ratio of IC50 for human A431 cells overexpressing wild type EGFR to IC50 for gefitinib-resistant human NCI-H1975 cells harboring EGFR L858R/[…] double mutant; format: ADME, cell-based
[22] = Selectivity ratio of IC50 for human 16HBE14o- cells harboring wild type EGFR to IC50 for gefitinib-sensitive human HCC827 cells harboring EGFR […] deletion mutant; format: ADME, cell-based; details: read-out: Ratio IC50
[23] = Selectivity ratio of IC50 for human A549 cells harboring wild type EGFR and k-RAS mutation to IC50 for gefitinib-sensitive human HCC827 cells harboring EGFR […] deletion mutant; format: ADME, cell-based
[24] = Selectivity ratio of IC50 for human A431 cells overexpressing wild type EGFR to IC50 for gefitinib-sensitive human HCC827 cells harboring EGFR […] deletion mutant; format: ADME, cell-based

Epidermal growth factor receptor (Homo sapiens, UniProt P00533, L858R/T790M), sequence (P00533 25-1210 T790M/L858R limits assumed): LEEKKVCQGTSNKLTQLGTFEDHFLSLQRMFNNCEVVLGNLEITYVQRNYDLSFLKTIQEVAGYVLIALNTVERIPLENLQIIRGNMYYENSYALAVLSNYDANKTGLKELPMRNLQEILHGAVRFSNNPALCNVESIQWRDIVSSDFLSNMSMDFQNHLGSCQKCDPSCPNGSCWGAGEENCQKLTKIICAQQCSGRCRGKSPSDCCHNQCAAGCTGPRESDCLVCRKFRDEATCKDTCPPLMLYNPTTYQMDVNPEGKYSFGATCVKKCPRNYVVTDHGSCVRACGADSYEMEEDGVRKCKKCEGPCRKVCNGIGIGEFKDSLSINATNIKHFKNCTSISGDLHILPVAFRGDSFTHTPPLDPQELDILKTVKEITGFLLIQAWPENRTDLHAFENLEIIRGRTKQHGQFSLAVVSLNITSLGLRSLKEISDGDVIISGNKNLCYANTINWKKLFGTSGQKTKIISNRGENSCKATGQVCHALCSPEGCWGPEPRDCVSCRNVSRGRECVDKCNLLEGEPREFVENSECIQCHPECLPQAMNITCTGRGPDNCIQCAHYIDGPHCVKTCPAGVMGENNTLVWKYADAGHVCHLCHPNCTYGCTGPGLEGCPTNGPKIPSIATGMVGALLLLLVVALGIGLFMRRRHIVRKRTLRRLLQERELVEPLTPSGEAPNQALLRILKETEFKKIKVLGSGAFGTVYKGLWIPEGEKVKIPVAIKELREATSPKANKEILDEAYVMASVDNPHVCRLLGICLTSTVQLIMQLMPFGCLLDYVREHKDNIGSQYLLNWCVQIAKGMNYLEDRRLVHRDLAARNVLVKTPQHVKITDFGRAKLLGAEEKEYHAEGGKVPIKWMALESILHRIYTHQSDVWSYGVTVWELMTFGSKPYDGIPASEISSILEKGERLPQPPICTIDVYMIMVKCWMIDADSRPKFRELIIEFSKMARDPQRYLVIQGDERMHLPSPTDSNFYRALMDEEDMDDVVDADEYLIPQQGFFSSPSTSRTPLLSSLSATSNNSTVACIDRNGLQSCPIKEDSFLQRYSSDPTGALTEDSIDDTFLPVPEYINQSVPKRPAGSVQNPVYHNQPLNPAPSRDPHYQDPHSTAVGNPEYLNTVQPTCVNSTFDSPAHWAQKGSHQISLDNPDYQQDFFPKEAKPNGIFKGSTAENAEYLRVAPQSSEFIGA
Epidermal growth factor receptor (Homo sapiens), P00533 [L858R,T790M], sequence (P00533 whole entry T790M/L858R, looked up): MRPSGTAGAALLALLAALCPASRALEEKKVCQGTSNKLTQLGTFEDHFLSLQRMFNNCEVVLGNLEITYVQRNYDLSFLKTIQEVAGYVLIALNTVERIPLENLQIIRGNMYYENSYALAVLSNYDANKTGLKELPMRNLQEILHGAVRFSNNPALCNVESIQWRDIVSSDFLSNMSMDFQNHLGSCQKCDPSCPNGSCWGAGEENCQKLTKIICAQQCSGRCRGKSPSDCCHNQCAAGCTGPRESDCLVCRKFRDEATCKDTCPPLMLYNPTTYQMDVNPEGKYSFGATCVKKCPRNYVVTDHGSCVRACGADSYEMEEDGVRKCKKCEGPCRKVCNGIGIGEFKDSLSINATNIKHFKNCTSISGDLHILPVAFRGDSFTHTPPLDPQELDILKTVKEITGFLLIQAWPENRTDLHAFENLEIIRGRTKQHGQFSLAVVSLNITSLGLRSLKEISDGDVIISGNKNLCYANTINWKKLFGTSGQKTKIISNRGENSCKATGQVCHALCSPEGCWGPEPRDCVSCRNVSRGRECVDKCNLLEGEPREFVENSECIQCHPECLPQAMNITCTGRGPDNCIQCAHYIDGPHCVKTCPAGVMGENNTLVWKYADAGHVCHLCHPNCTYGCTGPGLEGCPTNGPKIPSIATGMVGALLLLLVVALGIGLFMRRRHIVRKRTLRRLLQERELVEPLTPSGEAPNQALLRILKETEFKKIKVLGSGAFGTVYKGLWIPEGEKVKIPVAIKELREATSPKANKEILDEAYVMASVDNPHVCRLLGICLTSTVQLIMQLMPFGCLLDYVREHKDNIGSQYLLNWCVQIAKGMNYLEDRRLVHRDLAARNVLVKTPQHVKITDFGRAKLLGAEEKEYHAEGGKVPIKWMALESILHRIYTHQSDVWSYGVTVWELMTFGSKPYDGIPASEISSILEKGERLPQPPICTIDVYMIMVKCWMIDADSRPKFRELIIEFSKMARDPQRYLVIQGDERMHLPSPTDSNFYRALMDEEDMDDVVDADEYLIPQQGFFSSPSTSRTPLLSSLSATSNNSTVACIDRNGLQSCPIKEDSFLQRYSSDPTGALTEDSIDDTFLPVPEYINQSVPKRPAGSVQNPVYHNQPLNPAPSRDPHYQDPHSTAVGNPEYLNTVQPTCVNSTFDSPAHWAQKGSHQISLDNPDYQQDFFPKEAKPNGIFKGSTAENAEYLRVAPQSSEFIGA
Epidermal growth factor receptor (Homo sapiens, UniProt P00533, L858R), sequence (P00533 25-1210 L858R limits assumed): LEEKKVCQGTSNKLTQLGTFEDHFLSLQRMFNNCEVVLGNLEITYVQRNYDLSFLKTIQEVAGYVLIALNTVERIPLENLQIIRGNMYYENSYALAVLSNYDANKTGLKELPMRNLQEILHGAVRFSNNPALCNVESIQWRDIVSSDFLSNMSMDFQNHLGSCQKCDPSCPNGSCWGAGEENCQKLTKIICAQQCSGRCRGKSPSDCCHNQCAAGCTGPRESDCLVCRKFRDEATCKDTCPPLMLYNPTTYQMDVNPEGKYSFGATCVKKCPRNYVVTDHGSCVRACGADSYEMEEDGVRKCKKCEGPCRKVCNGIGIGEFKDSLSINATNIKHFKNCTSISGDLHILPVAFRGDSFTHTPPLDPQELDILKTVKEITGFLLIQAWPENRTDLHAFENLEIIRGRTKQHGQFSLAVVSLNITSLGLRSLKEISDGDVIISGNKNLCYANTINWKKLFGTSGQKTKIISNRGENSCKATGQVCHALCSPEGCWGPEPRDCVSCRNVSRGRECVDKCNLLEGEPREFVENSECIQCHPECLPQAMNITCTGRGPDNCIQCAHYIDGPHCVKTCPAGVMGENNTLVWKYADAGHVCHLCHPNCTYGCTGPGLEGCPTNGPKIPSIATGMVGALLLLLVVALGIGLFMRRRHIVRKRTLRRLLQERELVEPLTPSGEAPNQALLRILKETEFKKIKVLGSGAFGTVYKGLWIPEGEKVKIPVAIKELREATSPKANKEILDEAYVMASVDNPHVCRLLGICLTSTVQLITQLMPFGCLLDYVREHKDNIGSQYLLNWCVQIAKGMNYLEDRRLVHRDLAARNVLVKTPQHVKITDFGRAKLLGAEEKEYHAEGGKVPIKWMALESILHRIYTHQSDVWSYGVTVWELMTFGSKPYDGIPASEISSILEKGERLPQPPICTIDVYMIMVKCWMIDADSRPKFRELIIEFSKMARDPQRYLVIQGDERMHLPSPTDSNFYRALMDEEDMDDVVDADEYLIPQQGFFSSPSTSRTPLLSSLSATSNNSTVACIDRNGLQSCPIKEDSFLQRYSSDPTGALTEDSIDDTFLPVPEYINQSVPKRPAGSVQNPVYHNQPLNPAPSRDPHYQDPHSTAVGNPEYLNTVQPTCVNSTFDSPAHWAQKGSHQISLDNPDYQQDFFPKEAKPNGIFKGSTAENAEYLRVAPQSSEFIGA
Epidermal growth factor receptor (Homo sapiens, UniProt P00533), sequence (P00533 whole entry): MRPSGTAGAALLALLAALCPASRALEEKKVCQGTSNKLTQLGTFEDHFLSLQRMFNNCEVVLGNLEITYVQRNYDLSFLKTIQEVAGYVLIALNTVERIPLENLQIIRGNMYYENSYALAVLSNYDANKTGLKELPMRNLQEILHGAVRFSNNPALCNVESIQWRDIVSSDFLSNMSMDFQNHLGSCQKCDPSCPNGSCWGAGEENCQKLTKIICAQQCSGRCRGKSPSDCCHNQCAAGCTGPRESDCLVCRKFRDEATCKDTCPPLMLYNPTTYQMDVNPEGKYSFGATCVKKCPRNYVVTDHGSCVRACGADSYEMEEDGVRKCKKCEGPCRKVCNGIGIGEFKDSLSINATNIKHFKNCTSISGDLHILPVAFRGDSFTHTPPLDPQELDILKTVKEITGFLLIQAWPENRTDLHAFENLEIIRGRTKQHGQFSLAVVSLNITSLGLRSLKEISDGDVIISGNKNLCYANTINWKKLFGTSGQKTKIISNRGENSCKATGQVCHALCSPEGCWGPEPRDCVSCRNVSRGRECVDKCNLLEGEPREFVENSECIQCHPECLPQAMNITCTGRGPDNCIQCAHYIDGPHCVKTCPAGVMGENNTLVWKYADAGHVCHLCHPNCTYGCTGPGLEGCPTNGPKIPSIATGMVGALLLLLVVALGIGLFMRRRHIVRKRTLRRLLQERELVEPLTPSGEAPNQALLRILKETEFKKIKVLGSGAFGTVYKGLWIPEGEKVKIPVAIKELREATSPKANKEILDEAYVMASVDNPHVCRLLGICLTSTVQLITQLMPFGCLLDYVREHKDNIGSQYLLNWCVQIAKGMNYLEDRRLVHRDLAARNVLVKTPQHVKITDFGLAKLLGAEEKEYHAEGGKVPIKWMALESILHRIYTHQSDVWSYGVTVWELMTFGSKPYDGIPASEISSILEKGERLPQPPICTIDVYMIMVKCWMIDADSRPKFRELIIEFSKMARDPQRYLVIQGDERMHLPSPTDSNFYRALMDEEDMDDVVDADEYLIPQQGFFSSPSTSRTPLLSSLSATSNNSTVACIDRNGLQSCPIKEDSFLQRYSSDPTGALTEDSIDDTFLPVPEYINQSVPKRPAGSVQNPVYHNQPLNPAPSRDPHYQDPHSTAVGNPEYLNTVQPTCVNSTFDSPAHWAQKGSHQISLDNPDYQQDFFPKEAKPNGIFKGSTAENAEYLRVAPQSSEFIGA

In the case of `C=CC(=O)Nc1cccc(Oc2nc(Nc3ccc(N4CCN(CC(=O)OCCCOc5no[n+]([O-])c5S(=O)(=O)c5ccccc5)CC4)cc3OC)ncc2Cl)c1`, the IC50 (cells [1]) is reported as 22 nM, the IC50 (NCI-H1975 [2]) is reported as 396 nM and the IC50 (cells [3]) is reported as 2580 nM. The IC50 (cells [4]) was 2980 nM, the IC50 (A549) was 2930 nM and the IC50 [5] was 99 nM. For the same compound, the IC50 [6] was 98 nM, the IC50 [7] was 23 nM and the IC50 (A-431) was 1060 nM.

For `C=CC(=O)Nc1cccc(Oc2nc(Nc3ccc(N4CCN(C)CC4)cc3OC)ncc2Cl)c1`, the IC50 (cells [1]) was 8 nM, the inhibition [8] was “Active” and the inhibition in vivo at 8 mg/kg (NCI-H1975 [9]) was 69%. For the same compound, the IC50 (NCI-H1975 [2]) was 46 nM, the Activity (HCC827) was “Dose-dependent effect” and the inhibition (NCI-H1975 [10]) was “inactive”. For the same compound, the IC50 (cells [4]) was 1810 nM, the Activity (NCI-H1975 [11]) was “inactive” and the Activity [12] was “Non-toxic”. The IC50 (A549) was 2100 nM, the Activity (NCI-H1975 [13]) was “Dose-dependent effect” and the Activity [14] was “Non-toxic”. For the same compound, the inhibition [15] was “Active” and the inhibition [16] was “Active”.

`C=CC(=O)Nc1cccc(Oc2nc(Nc3ccc(N4CCN(CC(=O)N5CCC(Oc6no[n+]([O-])c6S(=O)(=O)c6ccccc6)CC5)CC4)cc3OC)ncc2Cl)c1` gave an IC50 (cells [1]) of 33 nM, an IC50 (NCI-H1975 [2]) of 855 nM and an IC50 (cells [3]) of 1800 nM. It also gave an IC50 (cells [4]) of 2200 nM, an IC50 (A549) of 4250 nM and an IC50 [5] of 42 nM. The IC50 [6] was 66 nM, the IC50 [7] was 13 nM and the IC50 (A-431) was 701 nM.

With `C=CC(=O)Nc1cccc(Oc2nc(Nc3ccc(N4CCN(CC(=O)OCC)CC4)cc3OC)ncc2Cl)c1` the IC50 (cells [1]) was 100 nM, the IC50 (NCI-H1975 [2]) was 1510 nM and the IC50 (cells [3]) was 707 nM. The IC50 (cells [4]) was greater than 50000 nM, the IC50 (A549) was 1450 nM and the IC50 (A-431) was greater than 10000 nM.

For `C=CC(=O)Nc1cccc(Oc2nc(Nc3ccc(N4CCN(CC(=O)NCCCOc5no[n+]([O-])c5S(=O)(=O)c5ccccc5)CC4)cc3OC)ncc2Cl)c1`, the IC50 (cells [1]) was 21 nM, the IC50 (NCI-H1975 [2]) was 1030 nM and the IC50 (cells [3]) was 2280 nM. The IC50 (cells [4]) was 2440 nM, the IC50 (A549) was 2480 nM and the IC50 [5] was 59 nM. It also gave an IC50 [6] of 68 nM, an IC50 [7] of 13 nM and an IC50 (A-431) of 357 nM.

`C=CC(=O)Nc1cccc(Oc2nc(Nc3ccc(N4CCN(CC(=O)OCCOc5no[n+]([O-])c5S(=O)(=O)c5ccccc5)CC4)cc3OC)ncc2Cl)c1` gave an IC50 (cells [1]) of 7 nM, an IC50 (NCI-H1975 [2]) of 63 nM and an IC50 (cells [3]) of 2040 nM. For the same compound, the IC50 (cells [4]) was 1350 nM, the IC50 (A549) was 2560 nM and the IC50 [5] was 59 nM. The IC50 [6] was 83 nM, the IC50 [7] was 17 nM and the IC50 (A-431) was 1230 nM.

With `O=S(=O)(c1ccccc1)c1c(OCCCCCCO)no[n+]1[O-]` the IC50 (cells [1]) was 4290 nM, the IC50 (NCI-H1975 [2]) was 5930 nM and the IC50 (cells [3]) was 3400 nM. For the same compound, the IC50 (cells [4]) was 1240 nM, the Activity (NCI-H1975 [11]) was “Active” and the IC50 (A549) was 23600 nM. It also gave an IC50 (A-431) of 3380 nM.

For `C=CC(=O)Nc1cccc(Oc2nc(Nc3ccc(N4CCN(CC(=O)NCCOc5no[n+]([O-])c5S(=O)(=O)c5ccccc5)CC4)cc3OC)ncc2Cl)c1`, the IC50 (cells [1]) was 9 nM, the IC50 (NCI-H1975 [2]) was 2020 nM and the IC50 (cells [3]) was 1550 nM. The IC50 (cells [4]) was 1530 nM, the Activity (NCI-H1975 [11]) was “Active” and the IC50 (A549) was 2260 nM. It also gave an IC50 [5] of 51 nM, an IC50 [6] of 63 nM and an IC50 [7] of 14 nM. It also gave an IC50 (A-431) of 736 nM.

Compound `C=CC(=O)Nc1cccc(Oc2nc(Nc3ccc(N4CCN(CC(=O)OCC#CCOc5no[n+]([O-])c5S(=O)(=O)c5ccccc5)CC4)cc3OC)ncc2Cl)c1` has an IC50 (cells [1]) of 10 nM, an IC50 (NCI-H1975 [2]) of 43 nM and an IC50 (cells [3]) of 2620 nM. For the same compound, the IC50 (cells [4]) was 959 nM, the Activity (NCI-H1975 [11]) was “Active” and the IC50 (A549) was 5530 nM. It also gave an IC50 [5] of 52 nM, an IC50 [6] of 64 nM and an IC50 [7] of 16 nM. The IC50 (A-431) was 3500 nM.

`C=CC(=O)Nc1cccc(Oc2nc(Nc3ccc(N4CCN(CC(=O)OCCCCOc5no[n+]([O-])c5S(=O)(=O)c5ccccc5)CC4)cc3OC)ncc2Cl)c1` showed an IC50 (cells [1]) of 6 nM, an IC50 (NCI-H1975 [2]) of 69 nM and an IC50 (cells [3]) of 4150 nM. For the same compound, the selectivity ratio [17] was 40, the IC50 (cells [4]) was 2560 nM and the “Ratio IC50” value [18] was 60. It also gave a selectivity ratio [19] of 40, an IC50 (A549) of 17200 nM and a selectivity ratio [20] of 40. For the same compound, the “Ratio IC50” value [21] was 60, the IC50 [5] was 174 nM and the selectivity ratio [22] was 40. The IC50 [6] was 189 nM, the IC50 [7] was 38 nM and the “Ratio IC50” value [23] was 60. The “Ratio IC50” value [24] was 60 and the IC50 (A-431) was 4070 nM.

`C=CC(=O)Nc1cccc(Oc2nc(Nc3ccc(N4CCN(CC(=O)N5CCN(CCOc6no[n+]([O-])c6S(=O)(=O)c6ccccc6)CC5)CC4)cc3OC)ncc2Cl)c1` gave an IC50 (cells [1]) of 291 nM, an IC50 (NCI-H1975 [2]) of 311 nM and an IC50 (cells [3]) of 1480 nM. The IC50 (cells [4]) was 1890 nM, the Activity (NCI-H1975 [11]) was “Active” and the IC50 (A549) was 2120 nM. For the same compound, the IC50 [5] was 39 nM, the IC50 [6] was 40 nM and the IC50 [7] was 6 nM. The IC50 (A-431) was 609 nM.

`C=CC(=O)Nc1cccc(Oc2nc(Nc3ccc(N4CCN(CC(=O)NCC(C)Oc5no[n+]([O-])c5S(=O)(=O)c5ccccc5)CC4)cc3OC)ncc2Cl)c1` (stereo not given) showed an IC50 (cells [1]) of 38 nM, an IC50 (NCI-H1975 [2]) of 245 nM and an IC50 (cells [3]) of 1850 nM. For the same compound, the IC50 (cells [4]) was 988 nM, the Activity (NCI-H1975 [11]) was “Active” and the IC50 (A549) was 1790 nM. The IC50 [5] was 73 nM, the IC50 [6] was 99 nM and the IC50 [7] was 20 nM. The IC50 (A-431) was 660 nM.

`C=CC(=O)Nc1cccc(Oc2nc(Nc3ccc(N4CCN(CC(=O)OCCOCCOc5no[n+]([O-])c5S(=O)(=O)c5ccccc5)CC4)cc3OC)ncc2Cl)c1` showed an IC50 (cells [1]) of 41 nM, an IC50 (NCI-H1975 [2]) of 471 nM and an IC50 (cells [3]) of 3160 nM. For the same compound, the IC50 (cells [4]) was 2940 nM, the Activity (NCI-H1975 [11]) was “Active” and the IC50 (A549) was 4450 nM. It also gave an IC50 [5] of 101 nM, an IC50 [6] of 113 nM and an IC50 [7] of 30 nM. The IC50 (A-431) was 3020 nM.
